Where two headings read alike, the source gives them in different places.

The target of one experiment is p38a/MK2 (Homo sapiens (Human), UniProt P49137+Q16539). As to the kind of experiment: p38a/MK2 biochemical assay: activation of MK2 by p38, FITC-HSP27 peptide phosphorylation (IMAP FP). The settings on record: 10-point 1:3 dilution, 60 pM active p38a, 1 nM inactive MK2, 10 μM ATP, 2 h incubation. On the procedure:
(§1) Expression vectors of the recombinant MK2 and PRAK kinases were constructed by cloning of the codon optimized gene sequences of MK2 (Uniprot ID P49137, amino acid fragment F46-H400), or PRAK (Uniprot ID Q81W41, amino acid fragment M1-Q471) into pGEX-4T1 (GE) for over expression of these kinases with N-terminal GST-tag. Protein expression was carried out in E. coli BL21 by growing the hosts in TB medium, induction of protein expression with 0.5 mM IPTG at approximate 0.8 OD600, and incubation of the cultures at 18° C. for 14-20 hours afterwards. The harvested cells were resuspended in […] of Lysis buffer (50 mM Tris-HCl, pH 8.0, 500 mM NaCl, 1 mM DTT, 5% glycerol, and 1 mM PMSF) per gram of wet cell mass and homogenized at 4° C. in a microfluidizer (ATS, Suzhou, China) at 14,000 psi pressure, 3 passes. The cell lysates were clarified by centrifugation and the supernatants containing the GST-fusion proteins were purified by affinity chromatography using GSH-Sepharose (GE) gravity flow columns pre-equilibrated in Buffer A (50 mM Tris-HCl, pH 8.0, 500 mM NaCl, 1 mM DTT, and 5% glycerol). After thorough washing of the columns with Buffer A, the bound GST-proteins were eluted by Buffer B (50 mM Tris, pH 8.0, 500 mM NaCl, 1 mM DTT, 5% glycerol, 10 mM glutathione), followed by size-exclusion purification on Superdex 200 column equilibrated in Buffer A. The purified proteins were concentrated to approximately 1 mg/ml and stored at −80° C.
This study evaluates the inhibitory potency of invention compound on p38/MK2 pathway vs p38/PRAK pathway. More specially the compound concentration (IC50) was determined that inhibited half of the maximal activation of MK2 or PRAK by p38. MK2 activation study was set up without or with a serial of 10-point 1:[…], and PRAK activation study was set up without or with a serial of 10-point 1:3 dilution of invention compound at top dose of 300 μM. The MK2 and PRAK activity were determined by the phosphorylation level of HSP27 peptide conjugated with FITC.
(§2) After 2 h incubation of the reaction mixture with various concentration of invention compound (200 nL), 60 μL 1×IMAP solution Mixture (Molecular Devices, Cat R8127) was added to the reaction mixture and incubated for another half hour. The signal was then read by Synergy™ Neo2 Multi-Mode Microplate Reader with filter setting (Ex/Em=485 nm/FITC FP-P pol 528 nm & FITC FP-S pol 528 nm)
(§3) The signal was then normalized to vehicle control and fitted in Xfit to generate IC50. The selectivity of MK2 over PRAK was calculated by the formular Selectivity=IC50 of PRAK/IC50 of MK2.

Another experiment has as its target p38a/PRAK (Homo sapiens (Human), UniProt Q16539). Kind of experiment: p38a/PRAK biochemical assay: activation of PRAK by p38, FITC-HSP27 peptide phosphorylation (IMAP FP). The settings on record: 10-point 1:3 dilution, top dose 300 μM; 60 pM active p38a, 1 nM inactive PRAK, 10 μM ATP, 2 h incubation; read-out: p38a/PRAK Enzyme pIC50 (converted). Here is the method: as §1
This study evaluates the inhibitory potency of invention compound on p38/MK2 pathway vs p38/PRAK pathway. More specially the compound concentration (IC50) was determined that inhibited half of the maximal activation of MK2 or PRAK by p38. MK2 activation study was set up without or with a serial of 10-point 1:3 dilution of invention compound at top dose of […], and PRAK activation study was set up without or with a serial of 10-point 1:3 dilution of invention compound at top dose of 300 μM. The MK2 and PRAK activity were determined by the phosphorylation level of HSP27 peptide conjugated with FITC.
as §2, §3

Where [1] appears, read: top dose 1 μM, read-out: p38a/MK2 (1 μM) Enzyme pIC50 (converted).
Where [2] appears, read: top dose 10 μM, read-out: p38a/MK2 (10 μM) Enzyme pIC50 (converted).

Chain of p38a/MK2 (P49137 46-400): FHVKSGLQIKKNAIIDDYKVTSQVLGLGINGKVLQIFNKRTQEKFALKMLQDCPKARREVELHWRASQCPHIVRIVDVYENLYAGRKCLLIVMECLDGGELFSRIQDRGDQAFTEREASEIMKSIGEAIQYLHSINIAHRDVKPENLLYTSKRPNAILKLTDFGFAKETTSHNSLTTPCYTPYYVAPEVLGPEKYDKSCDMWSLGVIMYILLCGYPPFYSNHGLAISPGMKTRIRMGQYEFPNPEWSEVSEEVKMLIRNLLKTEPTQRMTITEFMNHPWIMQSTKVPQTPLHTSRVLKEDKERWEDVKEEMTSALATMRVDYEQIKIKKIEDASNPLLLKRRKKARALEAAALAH
Chain of p38a/MK2 (Q16539 whole entry, the tested form may be a part): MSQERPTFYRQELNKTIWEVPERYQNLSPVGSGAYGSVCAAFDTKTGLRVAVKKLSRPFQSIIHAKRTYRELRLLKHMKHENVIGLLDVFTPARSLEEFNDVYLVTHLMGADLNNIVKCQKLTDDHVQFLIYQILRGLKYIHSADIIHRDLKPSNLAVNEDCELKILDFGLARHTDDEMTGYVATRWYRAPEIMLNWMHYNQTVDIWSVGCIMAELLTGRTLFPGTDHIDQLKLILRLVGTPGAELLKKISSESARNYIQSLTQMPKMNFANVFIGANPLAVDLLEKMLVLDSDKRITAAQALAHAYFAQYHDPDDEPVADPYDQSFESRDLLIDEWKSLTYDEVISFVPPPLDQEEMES
Chain of p38a/PRAK (Q16539 whole entry): as the sequence (Q16539 whole entry, the tested form may be a part) above

Turning to `Cc1cnc(-c2ccnc(C3(O)CCOCC3)n2)cc1-n1c(C)cc(OCc2ncc(F)cc2F)c(Cl)c1=O` (single isomer, unassigned) [Example 39A, rel-3-chloro-4-((3,5-difluoropyridin-2-yl)methoxy)-2′-(2-(4-hydroxytetrahydro-2H-pyran-4-yl)pyrimidin-4-yl)-5′,6-dimethyl-2H-[1,4′-bipyridin]-2-one], the IC50 was 0.01 µM on p38a/MK2 (setting [1]) and 12.6 µM at p38a/PRAK.

With `Cc1cnc(-c2ccnc(C(O)C3CC3)n2)cc1-n1c(C)cc(OCc2ncc(F)cc2F)c(Cl)c1=O` (single isomer, unassigned) [Example 35A, rel-3-chloro-2′-{2-[cyclopropyl(hydroxy)methyl]pyrimidin-4-yl}-4-[(3,5-difluoropyridin-2-yl)methoxy]-5′,6-dimethyl-[1,4′-bipyridin]-2-one], the IC50 on p38a/MK2 (setting [1]) was 0.0501 µM; on p38a/PRAK, 10 µM.

In the case of `Cc1cnc(-c2ccn(C(C)(C)CO)n2)cc1-n1c(C)cc(OCc2ncc(F)cc2F)c(Cl)c1=O` (single isomer, unassigned) [Example 25A, rel-3-chloro-4-[(3,5-difluoropyridin-2-yl)methoxy]-2′-[1-(1-hydroxy-2-methylpropan-2-yl)pyrazol-3-yl]-5′,6-dimethyl-[1,4′-bipyridin]-2-one], the IC50 at p38a/MK2 (setting [2]) was 0.0316 µM; at p38a/PRAK, 3.16 µM.

Turning to `Cc1cnc(-c2ccnc([C@](C)(O)C3CC3)n2)cc1-n1c(C)cc(OCc2ncc(F)cc2F)c(Cl)c1=O` (single isomer, unassigned) [Example 6B, rel-3-chloro-2′-[2-(1-cyclopropyl-1-hydroxyethyl)pyrimidin-4-yl]-4-[(3,5-difluoropyridin-2-yl)methoxy]-5′,6-dimethyl-[1,4′-bipyridin]-2-one], the IC50 at p38a/MK2 (setting [1]) was 0.00501 µM; on p38a/PRAK, 10 µM.

On to `Cc1cnc(-c2ccnc([C@@](C)(O)C3CC3)n2)cc1-n1c(C)cc(OCc2ncc(F)cc2F)c(Cl)c1=O` (single isomer, unassigned) [Example 6A, rel-3-chloro-2′-[2-(1-cyclopropyl-1-hydroxyethyl)pyrimidin-4-yl]-4-[(3,5-difluoropyridin-2-yl)methoxy]-5′,6-dimethyl-[1,4′-bipyridin]-2-one], for which the IC50 at p38a/MK2 (setting [2]) is 0.0251 µM; at p38a/PRAK it was 10 µM.

With `[2H]C([2H])(Oc1cc(C)n(-c2c(C)cnc(-c3ccnc(CC4(O)CC4)n3)c2F)c(=O)c1Cl)c1ncc(F)cc1F` (single isomer, unassigned) [Example 61A, rel-3-chloro-4-((3,5-difluoropyridin-2-yl)methoxy-d2)-3′-fluoro-2′-(2-((1-hydroxycyclopropyl)methyl)pyrimidin-4-yl)-5′,6-dimethyl-2H-[1,4′-bipyridin]-2-one], the values for the IC50 at p38a/MK2 (setting [1]) and at p38a/PRAK were above 0.1 µM and 158 µM, respectively.

As for `Cc1cc(COc2cc(C)n(-c3cc(-c4ccnc(C(C)(C)O)n4)ncc3C)c(=O)c2Cl)ncc1F` (single isomer, unassigned) [Example 22B, rel-3-chloro-4-[(5-fluoro-4-methylpyridin-2-yl)methoxy]-2′-[2-(2-hydroxypropan-2-yl)pyrimidin-4-yl]-5′,6-dimethyl-[1,4′-bipyridin]-2-one], the values for the IC50 at p38a/MK2 (setting [2]) and at p38a/PRAK were above 10 µM and above 316 µM, respectively.

In the case of `Cc1cnc(-c2ccnc(C(C)(C)O)n2)c(F)c1-n1c(C)cc(OCc2ncc(F)cc2F)c(Cl)c1=O` (single isomer, unassigned) [Example 53B, rel-3-chloro-4-[(3,5-difluoropyridin-2-yl)methoxy]-3′-fluoro-2′-[2-(2-hydroxypropan-2-yl)pyrimidin-4-yl]-5′,6-dimethyl-[1,4′-bipyridin]-2-one], the IC50 at p38a/MK2 (setting [1]) was 0.000126 µM; on p38a/PRAK, 0.794 µM.

For the compound `[2H]C([2H])(Oc1cc(C)n(-c2c(C)cnc(-c3cccc(C(C)(C)O)[n+]3[O-])c2F)c(=O)c1Cl)c1ncc(F)cc1F` (single isomer, unassigned) [Example 68B, rel-4′-{3-chloro-4-[(3,5-difluoropyridin-2-yl) (2H2)methoxy]-6-methyl-2-oxopyridin-1-yl}-3′-fluoro-6-(2-hydroxypropan-2-yl)-5′-methyl-[2,2′-bipyridin]-1-ium-1-olate], the values for the IC50 on p38a/MK2 (setting [1]) and at p38a/PRAK were 0.0002 µM and 0.398 µM, respectively.

As to `Cc1sc(-c2ccnc(C(C)(C)O)n2)cc1-n1c(C)cc(OCc2ncc(F)cc2F)c(Cl)c1=O` (single isomer, unassigned) [Example 33A, 3-chloro-4-[(3,5-difluoropyridin-2-yl)methoxy]-1-{5-[2-(2-hydroxypropan-2-yl)pyrimidin-4-yl]-2-methylthiophen-3-yl}-6-methylpyridin-2-one], the figures for the IC50 on p38a/MK2 (setting [1]) and at p38a/PRAK were 0.0251 µM and 5.01 µM, respectively.

Consider `Cc1cnc(-n2nc(C(C)(C)O)cc2C2CC2)cc1-n1c(C)cc(OCc2ncc(F)cc2F)c(Cl)c1=O` (single isomer, unassigned) [Example 20B, rel-3-chloro-2′-[5-cyclopropyl-3-(2-hydroxypropan-2-yl)pyrazol-1-yl]-4-[(3,5-difluoropyridin-2-yl)methoxy]-5′,6-dimethyl-[1,4′-bipyridin]-2-one], for which, on p38a/PRAK, the IC50 was above 316 µM.

As for `Cc1cnc(-n2nc(C(C)(C)O)cc2C)cc1-n1c(C)cc(OCc2ncc(F)cc2F)c(Cl)c1=O` (single isomer, unassigned) [Example 19A, rel-3-chloro-4-((3,5-difluoropyridin-2-yl)methoxy)-2′-(3-(2-hydroxypropan-2-yl)-5-methyl-1H-pyrazol-1-yl)-5′,6-dimethyl-2H-[1,4′-bipyridin]-2-one], the IC50 on p38a/PRAK is 5.01 µM.

In the case of `Cc1nn(-c2ccnc(C(C)(C)O)n2)cc1-n1c(C)cc(OCc2ncc(F)cc2F)c(Cl)c1=O` [Example 30, 3-chloro-4-[(3,5-difluoropyridin-2-yl)methoxy]-1-{1-[2-(2-hydroxypropan-2-yl)pyrimidin-4-yl]-3-methylpyrazol-4-yl}-6-methylpyridin-2-one], the IC50 at p38a/PRAK is 25.1 µM.

In the case of `Cc1cnnc(COc2cc(C)n(-c3cc(-c4ccnc(C(C)(C)O)n4)ncc3C)c(=O)c2Cl)c1` (single isomer, unassigned) [Example 28B, rel-3-chloro-2′-[2-(2-hydroxypropan-2-yl)pyrimidin-4-yl]-5′,6-dimethyl-4-[(5-methylpyridazin-3-yl)methoxy]-[1,4′-bipyridin]-2-one], at p38a/PRAK, the IC50 is above 316 µM.

On to `Cc1cnc(-n2nc(C(C)(C)O)cc2C)cc1-n1c(C)cc(OCc2ncc(F)cc2F)c(Cl)c1=O` (single isomer, unassigned) [Example 19B, rel-3-chloro-4-((3,5-difluoropyridin-2-yl)methoxy)-2′-(3-(2-hydroxypropan-2-yl)-5-methyl-1H-pyrazol-1-yl)-5′,6-dimethyl-2H-[1,4′-bipyridin]-2-one], for which the IC50 at p38a/PRAK was above 316 µM.

`Cc1cnc(-n2nc(C(C)(C)O)cc2C2CC2)cc1-n1c(C)cc(OCc2ncc(F)cc2F)c(Cl)c1=O` (single isomer, unassigned) [Example 20A, rel-3-chloro-2′-[5-cyclopropyl-3-(2-hydroxypropan-2-yl)pyrazol-1-yl]-4-[(3,5-difluoropyridin-2-yl)methoxy]-5′,6-dimethyl-[1,4′-bipyridin]-2-one]: the IC50 on p38a/PRAK is 5.01 µM.
